Assay: clinical use of intranasal oxytocin formulations to treat tinnitus (patient reports, Tinnitus Handicap Inventory)
Format: in vivo, human
Text: In an aspect, this disclosure provides a method for treating tinnitus. The method comprises administering intranasally to an individual a composition comprising or consisting essentially of oxytocin, wherein such administration results in treatment of tinnitus. The effectiveness of treatment of tinnitus may be monitored by quantifying tinnitus, such as by self-evaluation using clinically accepted techniques. An example is the Tinnitus Handicap Inventory (“THI”), a validated and published measurement technique. (Newman et al., Arch Otolaryngol Head Neck Surg, 1996, February 122(2), 143-8). In an embodiment, the improvement in an individual using THI may comprise an improvement of at least 10%. In various embodiments, the improvement may comprise from 10-100%, such as at least 20, 30, 40, 50, 60, 70, 80, 90, 95, or 99%.
This example describes clinical use of the present formulations to treat tinnitus. […] The formulation contained oxytocin, magnesium chloride, citric acid, and sodium citrate in sterile water. […] The dose was then increased to 45 IU (3 sprays of 15 IU) 4 times daily. […] A thickener was then added to the formulation keeping the oxytocin amount the same. […] Their score on the Tinnitus Handicap Inventory reduced from a pretreatment score of 96 (meaning a catastrophic level) to a current score of 14 (meaning mild or no tinnitus). The patient has remained improved over 1 year since initiating therapy. Their current dose is 22.5 IU in each nostril 4 times daily. Since their tinnitus occurs in distinct cycles, at times when tinnitus severity is loudest, they increase the dose to 5 times daily for 2 days. […] Their current handicap inventory is 8.
The dose was increased to 45 IU 4 times daily resulting in a decrease in tinnitus volume by approximately 30%.
In another patient, who developed constant tinnitus after a neck injury one year ago, a dose of 45 IU (22.5 IU in each nostril) 4 times daily was used for 30 days and is still ongoing. It has provided about 15% improvement.
In another patient with constant tinnitus a dose of 30 IU 4 times daily has been started and treatment is ongoing.

[1] = fifth patient, constant tinnitus, 30 IU 4 times daily, after 2 weeks
[2] = first patient, 22.5 IU in each nostril 4 times daily, 5 times daily for 2 days when loudest, past 3 months

**Q.** What does the source list for CC[C@H](C)[C@@H]1NC(=O)[C@H](Cc2ccc(O)cc2)NC(=O)[C@@H](N)CSSC[C@@H](C(=O)N2CCC[C@H]2C(=O)N[C@@H](CC(C)C)C(=O)NCC(N)=O)NC(=O)[C@H](CC(N)=O)NC(=O)[C@H](CCC(N)=O)NC1=O [oxytocin, Cys-Tyr-Ile-Gln-Asn-Cys-Pro-Leu-Gly (SEQ ID NO:1)]?
**A.** time without noticing the tinnitus [1]: several hours per day without noticing the tinnitus; tinnitus intensity [1]: tinnitus intensity has lowered; time patient has remained improved since initiating therapy (first patient): over 1 year; longest time without tinnitus [2]: ≤ 10 days; tinnitus severity [2]: reduced tinnitus severity; current handicap inventory (Tinnitus Handicap Inventory) (first patient, 22.5 IU in each nostril 4 times daily, 5 times daily for 2 days when loudest, pretreatment 96): 8; score on the Tinnitus Handicap Inventory (first patient, formulation with thickener, pretreatment score 96 (catastrophic level), 14 means mild or no tinnitus): 14; tinnitus free period (first patient, thickener added, same oxytocin amount (45 IU 4 times daily)): several days of tinnitus free period; improvement (fourth patient, constant tinnitus after neck injury, 45 IU (22.5 IU in each nostril) 4 times daily for 30 days): about 15%; tinnitus volume (fourth patient, dose raised on occasions to 5 times daily): diminished tinnitus volume; relief of tinnitus (general statement, lower amounts of oxytocin (under 20 IU per day)): did not result in any significant relief; time patient remains improved (second patient, 45 IU twice daily): more than a year; benefit (third patient, tinnitus caused by a drug, 30 IU twice daily): without benefit; decrease in tinnitus volume (third patient, tinnitus caused by a drug, 45 IU 4 times daily): approximately 30%

— US20210060119A1, “OXYTOCIN COMPOSITIONS FOR TREATMENT OF TINNITUS” (New York University, priority 2019, published 2021)
